Source: patent US10160773B2, “Method for inducing cytotoxicity in cancer cells” (King Fahd University of Petroleum and Minerals, priority 2016, dated 2018)

Tests used:
[1] = tested on: HCT15 (colon cancer cells); assay: In vitro cytotoxic activity, MTT assay, HCT15; format: cell-based, human; conditions: 24 h incubation with complex, mean ± standard deviation
Experimental: (§1) To examine the possible anticancer effect of complexes 1, 2, and cisplatin, a panel of three human tumor cell lines, A549 (lung cancer cells), MCF7 (breast cancer cells) and HCT15 (colon cancer cells) was used. The different human carcinoma cell cultures (A549, MCF7, HCT15) were first seeded at the concentration of 2×10^4 cells per mL in their respective growth mediums containing 10% FBS (fetal bovine serum) in a 96-well tissue culture plate and were incubated for 72 h at 37° C., 5% CO2 in air and 90% relative humidity in a CO2 incubator. After that the cell cultures were incubated for 24 h with 100 μL of cisplatin and the complexes (1-3) having 100, 50, 25 and 12.5 μM concentrations, prepared in growth medium. Further, the cultures were incubated with 100 μL of vital mitochondrial tetrazolium dye (3-(4,5-dimethylthiazol-2-yl)-2,5-diphenyltetrazolium bromide) (0.5 mg/ml) in a CO2 incubator at 37° C. in the dark for 4 h. After incubation, purple colored formazan crystals were formed due to the reduction of dye by mitochondrial succinate dehydrogenase enzyme. The resultant crystals were solublized by adding 100 μL of dimethylsulfoxide (DMSO). The colored solution formed was thoroughly mixed and read spectrophotometrically at 570 nm with Lab systems Multiskan EX-Enzyme-linked immunosorbent assay (EX-ELISA) reader against a reagent blank. All data presented are mean±standard deviation.
(§2) The anticancer activity of complexes 1-3 as well as cisplatin was evaluated against a panel of representative human tumor cell lines, which include, lung cancer cells (A549), breast cancer cells (MCF7) and colon cancer cells (HCT15). The results of in vitro cytotoxic activity are expressed as IC50 (concentration causing 50% reduction in cell viability) and are presented in Table 4. […] For 1, the IC50 values are closer to cisplatin. In going from 1 to 2, the substitution of two chlorine atoms by the chelating diamine ligand brought about a 1.5-3 times decrease in the antiproliferative activity of 2.

A549 (lung cancer cells) = assay: In vitro cytotoxic activity, MTT assay, A549; format: cell-based, human; conditions: 24 h incubation with complex, mean ± standard deviation
Experimental: as §1, §2

[2] = tested on: MCF7 (breast cancer cells); assay: In vitro cytotoxic activity, MTT assay, MCF7; format: cell-based, human; conditions: 24 h incubation with complex, mean ± standard deviation
Experimental: as §1, §2

Lysozyme protein = biological target: T1, Lysozyme protein (Gallus gallus, UniProt P00698); assay: Interaction with lysozyme by cyclic voltammetry; design: species or system chicken; conditions: 0.2 mM complex
T1 construct: the Lysozyme protein attained from chicken egg white; purchased Sigma-Aldrich; host or cells: chicken egg white (natural source)
T1 sequence (P00698 19-147): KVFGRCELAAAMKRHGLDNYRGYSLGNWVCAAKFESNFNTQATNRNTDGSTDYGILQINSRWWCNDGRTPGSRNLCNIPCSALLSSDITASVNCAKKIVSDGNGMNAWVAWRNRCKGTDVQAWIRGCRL
Experimental: (§3) The voltammetric measurements were performed by using three electrode based Auto Lab electrochemical workstation (Netherland). The working electrode was glassy carbon electrode (GCE), while Ag/AgCl and platinum were used as reference counter electrodes respectively. The weights of the chemicals were measured by using GR-2000 electrical balance. The pH of the buffer was controlled by Accumet® XL50 pH meter. For electrochemical analysis, the compounds 1 and 2 were dissolved in the ethanol as their solubility was very poor in aqueous medium. Prior to each analysis, the GCE was polished as a mirror like surface with alumina slurry on the synthetic clothe. The cyclic voltammograms for various analyses were recorded from 0.0 V to +1.3 V with a scan rate of 0.1 V/s. Electrochemical behavior may be studied using the methods described by Al-Jaroudi et al. and Seliman et al. (incorporated by reference) and well known model proteins. See S. S. Al-Jaroudi, M. Altaf, A. Al-Saadi, A.-N. Kawde, S. Altuwaijri, S. Ahmad and A. A. Isab, Biometals, 2015, 28, 827-844; and A. Seliman, M. Altaf, A. Kawde, M. Wazeer and A. Isab, J. Coord. Chem., 2014, 67, 3431-3443, each incorporated herein by reference in their entirety.
Moreover, the interaction of these compounds was also explored with the Lysozyme protein attained from chicken egg white.

[3] = Solubility in aqueous medium; format: physicochemical
[4] = Cyclic voltammetry of the complexes at glassy carbon electrode; format: physicochemical; conditions: cyclic voltammetric measurements
Experimental: as §3, with “See S. S. Al-Jaroudi, M. Altaf, A. Al-Saadi, A.-N. Kawde, S. Altuwaijri, S. Ahmad and A. A. Isab, Biometals, 2015, 28, 827-844; and A. Seliman, M. Altaf, A. Kawde, M. Wazeer and A. Isab, J. Coord. Chem., 2014, 67, 3431-3443, each incorporated herein by reference in their entirety.” left out
To get an insight into the reactivity of the complexes, the interactions of complexes 1 and 2 with model proteins, L-tyrosine, glutathione and lysozyme were studied electrochemically. The electrochemical behavior of complexes 1 and 2 in the presence of the proteins was analyzed by cyclic voltammetric technique (CV). […]

[5] = tested on: A549, MCF7 and HCT15 cells; assay: In vitro cytotoxic activity, statements on the whole panel of three tumor cell lines; format: cell-based, human
Experimental: as §1, with “After incubation, purple colored formazan crystals were formed due to the reduction of dye by mitochondrial succinate dehydrogenase enzyme. The resultant crystals were solublized by adding 100 μL of dimethylsulfoxide (DMSO).” left out, “All data presented are mean±standard deviation.” left out
The anticancer activity of complexes 1-3 as well as cisplatin was evaluated against a panel of representative human tumor cell lines, which include, lung cancer cells (A549), breast cancer cells (MCF7) and colon cancer cells (HCT15). […]

Compound	IC50 [1]	IC50 (A549 (lung cancer cells))	IC50 [2]	effect of successive addition of Lysozyme on the complex peaks (Lysozyme protein)	interaction with Lysozyme (comparison) (Lysozyme protein)	solubility in aqueous medium [3]	stability of gold(III) center during reaction with L-tyrosine, glutathione and lysozyme [4]	antiproliferative potency, rank among the complexes ([5]; A549, MCF7, HCT15)	decrease in the antiproliferative activity in going from 1 to 2 ([5]; 2 compared with 1, three cell lines)
N.N.[Cl][Pt][Cl] [Cisplatin, cisplatin, reference compound]	23.1 ± 3.78 µM	42.9 ± 1.99 µM	23.1 ± 3.78 µM	–	–	–	–	–	–
NC(c1cccc2ccccc12)C(N)c1cccc2ccccc12.O.O.[Au+3].[Cl-].[Cl-].[Cl-] (stereo not drawn) [Complex 1, [Au(npen)Cl2]Cl.2H2O]	9.4 ± 1.93 µM	28.8 ± 4.02 µM	11.8 ± 2.6 µM	decrease in the current intensities of the complex peaks	more significant	very poor	remained stable	least active	–
[Au(npen)2]Cl3 [Complex 2]	4.23 ± 1.31 µM	10.3 ± 2.82 µM	7.77 ± 1.82 µM	decrease in the current intensities of the complex peaks	–	very poor	remained stable	–	1.5-3 times
